From patent US12448369B2 (Edgewise Therapeutics, Inc., priority 2023, dated 2025)
Marks after values point to notes of the source that are not given here.

Experiments:
[1] = target: T1, Porcine ventricle myofibrils (ventricular myosin ATPase) (Sus scrofa, UniProt P79293); assay: Myofibril ATPase assay, porcine ventricle myofibrils; type: biochemical, porcine (Yucatan minipigs); settings: porcine ventricle myofibrils
T1 construct: Myofibrils from porcine cardiac muscle was isolated from the left ventricle of Yucatan minipigs; tissue Exemplar Genetics; host or cells: left ventricle of Yucatan minipigs, myofibrils prepared in house
Procedure, shortened: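 In a coupled enzyme format, ADP from myofibril ATPase drives NADH oxidation, monitored kinetically at 340 nm for 75 min using minipig ventricle myofibrils. Effective concentrations giving 25% loss or gain of activity relative to vehicle were calculated from 4-parameter fits.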

[2] = tested on: Porcine atria myofibrils (atrial myosin ATPase); assay: Myofibril ATPase assay, porcine atria myofibrils; type: biochemical; settings: porcine atria myofibrils
Procedure, shortened: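 Atrial myofibril ATPase measured by NADH-coupled absorbance at 340 nm; vehicle-normalized slopes fitted to give Y75 or Y125 values.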

[3] = tested on: Rabbit Psoas myofibrils (skeletal myosin ATPase); assay: Myofibril ATPase assay, rabbit psoas (skeletal) myofibrils; type: biochemical; settings: rabbit psoas myofibrils
Procedure, shortened: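 Values derive from concentration–response fits of NADH consumption rates at 340 nm, normalized to vehicle-only wells, as Y75 or Y125. Myofibril ATP turnover was linked to NADH via PK/LDH in Ca/EGTA-buffered PIPES, pH 7.0, and read over 75 min.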

[4] = Y75 value (75% activity relative to no compound)
[5] = ‡ Y125 value, not a Y75 value (125% activity relative to no compound)

T1 sequence (P79293 whole entry): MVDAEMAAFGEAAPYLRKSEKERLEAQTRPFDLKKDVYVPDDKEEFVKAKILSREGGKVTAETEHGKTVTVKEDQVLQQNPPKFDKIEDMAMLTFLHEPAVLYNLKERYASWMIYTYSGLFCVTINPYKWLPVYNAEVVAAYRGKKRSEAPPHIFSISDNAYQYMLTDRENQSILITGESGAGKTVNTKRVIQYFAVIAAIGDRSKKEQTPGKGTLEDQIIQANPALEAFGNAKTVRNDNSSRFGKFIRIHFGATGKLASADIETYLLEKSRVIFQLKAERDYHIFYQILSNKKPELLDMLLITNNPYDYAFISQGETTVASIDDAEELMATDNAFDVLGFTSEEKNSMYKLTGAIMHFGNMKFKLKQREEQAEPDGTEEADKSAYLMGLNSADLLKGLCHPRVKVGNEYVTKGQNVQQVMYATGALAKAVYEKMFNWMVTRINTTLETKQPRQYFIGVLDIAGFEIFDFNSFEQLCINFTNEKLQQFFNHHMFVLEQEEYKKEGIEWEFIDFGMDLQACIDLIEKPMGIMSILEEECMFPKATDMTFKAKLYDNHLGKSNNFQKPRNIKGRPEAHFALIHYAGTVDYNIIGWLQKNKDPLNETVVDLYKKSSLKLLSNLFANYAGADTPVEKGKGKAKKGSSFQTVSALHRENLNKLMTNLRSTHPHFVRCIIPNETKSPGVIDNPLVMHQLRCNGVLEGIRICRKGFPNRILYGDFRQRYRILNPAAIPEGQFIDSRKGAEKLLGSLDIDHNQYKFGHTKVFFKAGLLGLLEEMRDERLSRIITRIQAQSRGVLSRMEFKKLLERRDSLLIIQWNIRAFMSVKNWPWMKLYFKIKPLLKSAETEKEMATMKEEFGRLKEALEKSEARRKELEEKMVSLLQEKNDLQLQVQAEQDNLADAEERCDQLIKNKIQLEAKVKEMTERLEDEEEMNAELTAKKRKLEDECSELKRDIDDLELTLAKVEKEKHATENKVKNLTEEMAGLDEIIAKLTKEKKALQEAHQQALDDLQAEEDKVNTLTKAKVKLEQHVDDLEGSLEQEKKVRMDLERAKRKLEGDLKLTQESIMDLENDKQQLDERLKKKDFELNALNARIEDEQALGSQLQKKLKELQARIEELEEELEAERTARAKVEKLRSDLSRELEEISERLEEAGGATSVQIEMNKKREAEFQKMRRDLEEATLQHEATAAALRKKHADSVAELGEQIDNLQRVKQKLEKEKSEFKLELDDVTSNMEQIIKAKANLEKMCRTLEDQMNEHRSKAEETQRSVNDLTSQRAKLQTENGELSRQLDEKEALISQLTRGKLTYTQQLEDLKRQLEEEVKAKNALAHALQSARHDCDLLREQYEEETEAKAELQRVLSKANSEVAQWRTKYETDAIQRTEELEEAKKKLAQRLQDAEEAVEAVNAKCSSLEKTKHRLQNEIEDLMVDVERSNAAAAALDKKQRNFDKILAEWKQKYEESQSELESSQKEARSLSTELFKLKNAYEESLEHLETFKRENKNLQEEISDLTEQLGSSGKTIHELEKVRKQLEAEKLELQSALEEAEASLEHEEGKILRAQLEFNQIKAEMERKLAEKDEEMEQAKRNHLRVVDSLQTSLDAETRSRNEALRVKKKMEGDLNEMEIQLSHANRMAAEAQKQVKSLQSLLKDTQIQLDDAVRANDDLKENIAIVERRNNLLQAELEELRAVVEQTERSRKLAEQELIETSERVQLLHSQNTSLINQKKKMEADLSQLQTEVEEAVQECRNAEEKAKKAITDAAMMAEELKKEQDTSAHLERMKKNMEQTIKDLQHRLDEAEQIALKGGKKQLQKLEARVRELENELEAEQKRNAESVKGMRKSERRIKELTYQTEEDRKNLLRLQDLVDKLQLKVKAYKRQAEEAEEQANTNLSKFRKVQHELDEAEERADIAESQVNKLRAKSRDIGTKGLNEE

Compound	Ventricular EC25 ([1]; Y75 value (no ‡ mark)) [µM]	Atrial EC25 ([2]; Y75 value (no ‡ mark)) [µM]	Skeletal EC25 ([3]; Y75 value (no ‡ mark)) [µM]	Ventricular EC25 ([1]; Y75 value) [µM]	Atrial EC25 [2, 4] [µM]	Skeletal EC25 ([3]; Y75 value) [µM]	Ventricular EC25 (Y125 value, marked ‡) ([1]; Y125 value, not a Y75 value)	Ventricular EC25 [1, 5]
N#Cc1cnc2c(n1)CC[C@H]2NC(=O)Cc1cc2cc(F)c(F)cc2[nH]c1=O [compound 1082]	100.00	100.00	100.00	–	–	–	–	–
Cc1c(CC(=O)N[C@H](CO)c2ccc(F)cc2F)c(=O)[nH]c2cccc(C#N)c12 (single isomer, unassigned) [compound 89]	0.32	0.05	0.04	–	–	–	–	–
Cc1c(CC(=O)N[C@@H](C)c2cnc(C#N)nc2)c(=O)[nH]c2cc(F)c(F)cc12 (single isomer, unassigned) [compound 2075]	0.52	0.07	0.04	–	–	–	–	–
Cc1c(CC(=O)N[C@@H](C)c2ccc(F)cc2F)c(=O)[nH]c2ccnc(Nc3ccccc3)c12 [compound 278]	–	–	–	100.00	17.26	2.73	–	–
Cc1nccc2[nH]c(=O)c(CC(=O)N[C@H](C)c3cccnc3)c(C)c12 (single isomer, unassigned) [compound 322]	–	–	–	100.00	100.00	100.00	–	–
C[C@H](NC(=O)Cc1cc2cc(F)ccc2[nH]c1=O)c1ccc(C#N)cn1 [compound 1126]	100.00	100.00	100.00	–	–	–	–	–
Cc1c(CC(=O)N[C@H](C)c2ccc(F)cn2)c(=O)[nH]c2cccc(F)c12 [compound 43]	100.00	100.00	14.83	–	–	–	–	–
Cc1nccc2[nH]c(=O)c(CC(=O)N[C@H]3CCc4cc(C#N)cnc43)c(C)c12 (single isomer, unassigned) [compound 234]	–	–	–	100.00	100.00	20.28	–	–
Cc1c(CC(=O)N[C@@H](C)c2ccc(C#N)cn2)c(=O)[nH]c2ccc(F)c(C3CC3)c12 [compound 24]	0.21	0.05	0.04	–	–	–	–	–
Cc1cc(C#N)nnc1[C@H](C)NC(=O)Cc1c(C)c2cc(F)ccc2[nH]c1=O [compound 1059]	0.16	0.13	0.39	–	–	–	–	–
Cc1ccc2[nH]c(=O)c(CC(=O)N[C@@H](C)c3ccc(F)cc3F)c(C(F)(F)F)c2n1 [compound 419]	–	–	–	100.00	0.49	0.19	–	–
CCOc1nccc2[nH]c(=O)c(CC(=O)N[C@@H](C)c3ccc(F)cc3F)c(C(F)(F)F)c12 [compound 422]	–	–	–	100.00	100.00	0.03	–	–
Cc1c(CC(=O)N[C@@H](C)c2ccc(C#N)cc2F)c(=O)[nH]c2ccc(C(F)(F)F)nc12 (single isomer, unassigned) [compound 209]	–	–	–	0.14	0.03	0.01	–	–
Cc1c(CC(=O)N[C@@H](C)c2ncc(C#N)cc2F)c(=O)[nH]c2ccnc(C#N)c12 (single isomer, unassigned) [compound 285]	–	–	–	0.16	0.28	0.02	–	–
Cc1c(CC(=O)N[C@H](C)c2ccc(C#N)cc2F)c(=O)[nH]c2cnnc(C#N)c12 [compound 171]	–	–	–	100.00	22.46	15.02	–	–
Cc1nnccc1[C@@H](C)NC(=O)Cc1c(C)c2cc(F)ccc2[nH]c1=O [compound 1090]	100.00	5.79	100.00	–	–	–	–	–
Cc1c(CC(=O)N[C@@H](C)c2ccc(C#N)cn2)c(=O)[nH]c2cccc(F)c12 [compound 54]	1.53	0.11	0.04	–	–	–	–	–
Cc1c(CC(=O)N[C@H](C)c2ncc(F)cc2F)c(=O)[nH]c2ccc(C#N)nc12 (single isomer, unassigned) [compound 249]	–	–	–	100.00	100.00	100.00	–	–
Cc1c(CC(=O)N[C@H](C)c2ccc(C#N)nn2)c(=O)[nH]c2ccc(F)c(C3CC3)c12 (single isomer, unassigned) [compound 2057]	0.94	0.65	0.27	–	–	–	–	–

Compound	Ventricular EC25 ([1]; Y75 value (no ‡ mark)) [µM]	Atrial EC25 ([2]; Y75 value (no ‡ mark)) [µM]	Skeletal EC25 ([3]; Y75 value (no ‡ mark)) [µM]	Ventricular EC25 ([1]; Y75 value) [µM]	Atrial EC25 [2, 4] [µM]	Skeletal EC25 ([3]; Y75 value) [µM]	Ventricular EC25 (Y125 value, marked ‡) ([1]; Y125 value, not a Y75 value)	Ventricular EC25 [1, 5]
Cc1nccc2[nH]c(=O)c(C3(C(=O)N[C@@H](C)c4ccc(C#N)cc4F)CC3)c(C)c12 (single isomer, unassigned) [compound 3512]	–	–	–	–	1.65	0.71	100.00‡ μM	–
C[C@H](NC(=O)Cc1cc2c(Cl)c(O)ccc2[nH]c1=O)c1ccc(F)cc1F [compound 91]	100.00	1.38	3.55	–	–	–	–	–
Cc1ccc2[nH]c(=O)c(CC(=O)N[C@@H](C)c3ncc(C#N)cn3)cc2c1F (single isomer, unassigned) [compound 2014]	–	100.00	100.00	–	–	–	–	100.00‡ μM
C[C@H](NC(=O)[C@H](C)c1c(C(F)(F)F)c2cc(F)ccc2[nH]c1=O)c1ccc(F)cc1F (single isomer, unassigned) [compound 58]	1.32	0.06	0.15	–	–	–	–	–
Cc1c(CC(=O)N[C@@H](C)c2ncc(C#N)cn2)c(=O)[nH]c2cc(F)ccc12 [compound 1041]	76	18.0	7.39	–	–	–	–	–
Cc1nccc2[nH]c(=O)c(CC(=O)N[C@@H](CO)Cc3ccccc3)c(C)c12 [compound 496]	–	–	–	100.00	100.00	100.00	–	–
C[C@H](NC(=O)C1(c2cc3c(F)c(F)ccc3[nH]c2=O)CC1)c1ccc(C#N)cn1 (single isomer, unassigned) [compound 4810]	100.00	1.90	100.00	–	–	–	–	–
C[C@H](NC(=O)C(F)(F)c1cc2c(F)c(F)ccc2[nH]c1=O)c1cccc(C#N)n1 (single isomer, unassigned) [compound 2572]	–	100.00	100.00	–	–	–	–	100.00‡ μM
Cc1c(CC(=O)N[C@H](C)c2ccc(S(C)(=O)=O)cc2F)c(=O)[nH]c2ccnc(C#N)c12 (single isomer, unassigned) [compound 214]	–	–	–	100.00	100.00	23.30	–	–
C[C@@H](NC(=O)Cc1cc2cc(F)c(F)cc2[nH]c1=O)c1ncc(C#N)cc1F (single isomer, unassigned) [compound 3]	0.31	3.40	2.33	–	–	–	–	–
C[C@H](NC(=O)Cc1c(C(F)F)c2c(F)c(F)ccc2[nH]c1=O)c1ccc(F)cc1F [compound 107]	0.09	0.03	0.02	–	–	–	–	–
Cc1c(CC(=O)N[C@@H](CO)c2ccc(F)cc2F)c(=O)[nH]c2cccc(C#N)c12 (single isomer, unassigned) [compound 90]	100.00	23.51	1.26	–	–	–	–	–
COc1cccc([C@@H](C)NC(=O)Cc2c(C)c3c(C)nccc3[nH]c2=O)n1 (single isomer, unassigned) [compound 309]	–	–	–	100.00	100.00	100.00	–	–
C[C@H](NC(=O)Cc1cc2c(F)cc(F)cc2[nH]c1=O)c1ncc(C#N)cc1F [compound 1138]	1.22	1.64	0.04	–	–	–	–	–
Cc1c(CC(=O)N[C@@H](C)c2ncc(C#N)cn2)c(=O)[nH]c2ccc(F)cc12 [compound 1071]	11.94	5.29	100.00	–	–	–	–	–
C[C@H](NC(=O)Cc1cc2cc(F)c(F)cc2[nH]c1=O)c1ncc(C#N)cc1F (single isomer, unassigned) [compound 4]	0.96	4.38	0.15	–	–	–	–	–
Cc1c(F)ccc2[nH]c(=O)c(C(F)(F)C(=O)N[C@@H](C)c3ncc(C#N)cc3F)c(C#N)c12 (single isomer, unassigned) [compound 2520]	0.21	0.14	0.07	–	–	–	–	–
C[C@H](NC(=O)Cc1c(C(F)(F)F)c2cc(F)ccc2[nH]c1=O)c1ccc(F)cc1F [compound 115]	0.32	0.05	0.02	–	–	–	–	–
